This passage reports IC50 results from patent US9637485B2, “6,7-dihydrobenzo[a]quinolizin-2-one derivatives for the treatment and prophylaxis of hepatitis B virus infection” (Hoffmann-La Roche Inc., priority 2014, dated 2017).

Broadly, the IC50 is the point on the concentration scale where inhibition reaches its midpoint.

Where two headings read alike, the source gives them in different places.

This assay concerns HBsAg. Put plainly: HBsAg assay (CLIA of secreted HBsAg in HepG2.2.15 culture supernatant). The class given is cell-based, HBV. The procedure: HepG2.2.15 cells (Acs et al. Proc Natl Acad Sci USA, 84, (1987), 4641-4), a constitutively HBV-expressing cell line were cultured in DMEM+Glutamax-I medium (Invitrogen, Carlsbad, Calif., USA, Catalog number: 11320082), supplemented with 10% fetal bovine serum (Invitrogen, Catalog number: 10099141) and G418 (Invitrogen, Catalog number: 10131027) at a final concentration of 200 mg/L and maintained in 5% CO2 at 37° C.
HepG2.2.15 cells were seeded in duplicate into white, 96-well plates at 1.5×10^4 cells/well. The cells were treated with a three-fold serial dilution series of the compounds in DMSO. The final DMSO concentration in all wells was 1% and DMSO was used as no drug control.
The HBsAg chemiluminescence immunoassay (CLIA) kit (Autobio Diagnostics Co., Zhengzhou, China, Catalog number: CL0310-2) was used to measure the levels of secreted HBV antigens semi-quantitatively. For the detection 50 μL/well culture supernatant was used and HBsAg was quantified using HBsAg chemiluminescence immunoassay (CLIA) kit (Autobio Diagnostics Co., Zhengzhou, China, Catalog number: CL0310-2), 50 μl of the supernatant was transferred to the CLIA assay plate and 50 μL of enzyme conjugate reagent was added into each well. The plates were sealed and gently agitated for 1 hour at room temperature. The supernatant-enzyme-mixture was discarded and wells were washed 6 times with 300 μL of PBS. The residual liquid was removed by plating the CLIA plate right side down on absorbent tissue paper. 25 μL of substrates A and B were added to each well. Luminance was measured using a luminometer (Mithras LB 940 Multimode Microplate Reader) after 10 minutes incubation. Dose-response curves were generated and the IC50 value was extrapolated by using the E-WorkBook Suite (ID Business Solutions Ltd., Guildford, UK). The IC50 was defined as the compound concentration (or conditioned media log dilution) at which HBsAg secretion was reduced by 50% compared to the no drug control.

Where [1] appears, read: Hepatitis B virus, HepG2.2.15, read-out: IC50 (HBsAg secretion reduced by 50% compared to the no drug control), HepG2.2.15 cells, culture supernatant, HBsAg CLIA.
Setting [2] is: read-out: IC50 (HBsAg secretion reduced by 50% compared to the no drug control), HepG2.2.15 cells, culture supernatant, HBsAg CLIA.

In the case of `COCC(C)(C)C1Cc2cc(OCCCCCCNC(=O)OC(C)(C)C)c(OC)cc2-c2cc(=O)c(C(=O)O)cn21` (stereo not drawn) [Example 14, 9-[6-(tert-Butoxycarbonylamino)hexoxy]-10-methoxy-6-(2-methoxy-1,1-dimethyl-ethyl)-2-oxo-6,7-dihydrobenzo[a]quinolizine-3-carboxylic acid], under setting [1], the IC50 is 3 nM.
For `COCC(C)(C)C1Cc2cc(OC)c(OC)cc2-c2cc(=O)c(C(=O)O)cn21` (stereo not drawn) [Example 2, 9,10-Dimethoxy-6-(2-methoxy-1,1-dimethyl-ethyl)-2-oxo-6,7-dihydrobenzo[a]quinolizine-3-carboxylic acid], the IC50 under setting [1] was 34 nM.
Still for that read-out and setting: in the case of `COCC(C)(C)C1Cc2cc(C#N)c(OC)cc2-c2cc(=O)c(C(=O)O)cn21` (stereo not drawn) [Example 47, 9-Cyano-10-methoxy-6-(2-methoxy-1,1-dimethyl-ethyl)-2-oxo-6,7-dihydrobenzo[a]quinolizine-3-carboxylic acid] it was 230 nM.
The same measure, in the same setting: in the case of `CCc1cc2c(cc1OC)-c1cc(=O)c(C(=O)O)cn1C(C(C)(C)COC)C2` (stereo not drawn) [Example 45, 9-Ethyl-10-methoxy-6-(2-methoxy-1,1-dimethyl-ethyl)-2-oxo-6,7-dihydrobenzo[a]quinolizine-3-carboxylic acid] it was 74 nM; in that of `COCC(C)(C)C1Cc2cc(OCCCCCCN)c(OC)cc2-c2cc(=O)c(C(=O)O)cn21` (stereo not drawn) [Example 16, 9-(6-Aminohexoxy)-10-methoxy-6-(2-methoxy-1,1-dimethyl-ethyl)-2-oxo-6,7-dihydrobenzo[a]quinolizine-3-carboxylic acid], 68 nM.
Same read-out and setting: in the case of `COCCCOc1cc2c(cc1OC)-c1cc(=O)c(C(=O)O)cn1C(C(C)(C)CO)C2` (racemic) [Example 24, 6-(2-Hydroxy-1,1-dimethyl-ethyl)-10-methoxy-9-(3-methoxypropoxy)-2-oxo-6,7-dihydrobenzo[a]quinolizine-3-carboxylic acid] it was 5 nM; in that of `COCCCOc1cc2c(cc1OC)-c1cc(=O)c(C(=O)O)cn1C(COC)C2` (stereo not drawn) [Example 18, 10-Methoxy-6-(methoxymethyl)-9-(3-methoxypropoxy)-2-oxo-6,7-dihydrobenzo[a]quinolizine-3-carboxylic acid], 75 nM.
Consider `CCOc1cc2c(cc1OCC)-c1cc(=O)c(C(=O)O)cn1C(CN(C)C)C2` (stereo not drawn) [Example 43, 6-[(Dimethylamino)methyl]-9,10-diethoxy-2-oxo-6,7-dihydrobenzo[a]quinolizine-3-carboxylic acid], for which the IC50 under setting [1] is 134 nM.
On the same count and under the same terms, in the case of `CCOCCOc1cc2c(cc1OC)-c1cc(=O)c(C(=O)O)cn1C(C(C)(C)COC)C2` (stereo not drawn) [Example 8, 9-(2-Ethoxyethoxy)-10-methoxy-6-(2-methoxy-1,1-dimethyl-ethyl)-2-oxo-6,7-dihydrobenzo[a]quinolizine-3-carboxylic acid] it was 12 nM.
In the case of `COCCCOc1cc2c(cc1OC)-c1cc(=O)c(C(=O)O)cn1[C@H](C(C)(C)O)C2` (single isomer, unassigned) [Example 21, (+)-6-(1-Hydroxy-1-methyl-ethyl)-10-methoxy-9-(3-methoxypropoxy)-2-oxo-6,7-dihydrobenzo[a]quinolizine-3-carboxylic acid], the IC50 under setting [2] came out at 41 nM.
Turning to `COCC(C)(C)C1Cc2cc(OCC(F)(F)F)c(OC)cc2-c2cc(=O)c(C(=O)O)cn21` (stereo not drawn) [Example 3, 10-Methoxy-6-(2-methoxy-1,1-dimethyl-ethyl)-2-oxo-9-(2,2,2-trifluoroethoxy)-6,7-dihydrobenzo[a]quinolizine-3-carboxylic acid], the IC50 under setting [1] was determined as 9 nM.
Same read-out and setting: in the case of `COCCCOc1cc2c(cc1OC)-c1cc(=O)c(C(=O)O)cn1C(C(C)(C)COCc1ccccc1)C2` (stereo not drawn) [Example 23, 6-(2-Benzyloxy-1,1-dimethyl-ethyl)-10-methoxy-9-(3-methoxypropoxy)-2-oxo-6,7-dihydrobenzo[a]quinolizine-3-carboxylic acid] it was 18 nM; in that of `COCC(C)(C)C1Cc2cc(OCCCCCCO)c(OC)cc2-c2cc(=O)c(C(=O)O)cn21` (stereo not drawn) [Example 5, 9-(6-Hydroxyhexoxy)-10-methoxy-6-(2-methoxy-1,1-dimethyl-ethyl)-2-oxo-6,7-dihydrobenzo[a]quinolizine-3-carboxylic acid], 6 nM; in that of `CCOc1cc2c(cc1OCC)-c1cc(=O)c(C(=O)O)cn1C(CO)C2` (stereo not drawn) [Example 35, 9,10-Diethoxy-6-(hydroxymethyl)-2-oxo-6,7-dihydrobenzo[a]quinolizine-3-carboxylic acid], 868 nM.
The same measure, in the same setting: then `COCCCOc1cc2c(cc1Cl)-c1cc(=O)c(C(=O)O)cn1C(C(C)(C)COC)C2` (racemic) [Example 30, 10-Chloro-6-(2-methoxy-1,1-dimethyl-ethyl)-9-(3-methoxypropoxy)-2-oxo-6,7-dihydrobenzo[a]quinolizine-3-carboxylic acid], with 4 nM.
`COCCCOc1cc2c(cc1Cl)-c1cc(=O)c(C(=O)O)cn1C(C(C)(C)COC)C2` (single isomer, unassigned) [Example 32, (−)-10-chloro-6-(2-methoxy-1,1-dimethyl-ethyl)-9-(3-methoxypropoxy)-2-oxo-6,7-dihydrobenzo[a]quinolizine-3-carboxylic acid]: the IC50 under setting [2] was 8270 nM.
Take `COCC(C)(C)C1Cc2cc(OCCCN(C)C)c(OC)cc2-c2cc(=O)c(C(=O)O)cn21` (stereo not drawn) [Example 13, 9-[3-(Dimethylamino)propoxy]-10-methoxy-6-(2-methoxy-1,1-dimethyl-ethyl)-2-oxo-6,7-dihydrobenzo[a]quinolizine-3-carboxylic acid]: under setting [1], the IC50 is 579 nM.
Take `CCOc1cc2c(cc1OCC)-c1cc(=O)c(C(=O)O)cn1C(CN1CCCC1=O)C2` (stereo not drawn) [Example 40, 9,10-Diethoxy-2-oxo-6-[(2-oxopyrrolidin-1-yl)methyl]-6,7-dihydrobenzo[a]quinolizine-3-carboxylic acid]: the IC50 under setting [1] is 7450 nM.
In the case of `CCOc1cc2c(cc1OCC)-c1cc(=O)c(C(=O)O)cn1C(CNS(C)(=O)=O)C2` (stereo not drawn) [Example 38, 9,10-Diethoxy-6-(methanesulfonamidomethyl)-2-oxo-6,7-dihydrobenzo[a]quinolizine-3-carboxylic acid], the IC50 under setting [1] was found to be 33300 nM.
With `COCCCOc1cc2c(cc1OC)-c1cc(=O)c(C(=O)O)cn1[C@H](C(C)(C)COC)C2` (single isomer, unassigned) [Example 29, (−)-10-methoxy-6-(2-methoxy-1,1-dimethyl-ethyl)-9-(3-methoxypropoxy)-2-oxo-6,7-dihydrobenzo[a]quinolizine-3-carboxylic acid], the IC50 under setting [2] turned out to be 396 nM.
For `COCC(C)(C)C1Cc2cc(OCCCN3CCOCC3)c(OC)cc2-c2cc(=O)c(C(=O)O)cn21` (stereo not drawn) [Example 4, 10-Methoxy-6-(2-methoxy-1,1-dimethyl-ethyl)-9-(3-morpholinopropoxy)-2-oxo-6,7-dihydrobenzo[a]quinolizine-3-carboxylic acid], under setting [1], the IC50 was 14 nM.
Same read-out and setting: then `COCCOc1cc2c(cc1Cl)-c1cc(=O)c(C(=O)O)cn1C(CS(C)(=O)=O)C2` (stereo not drawn) [Example 34, 10-Chloro-9-(2-methoxyethoxy)-6-(methylsulfonylmethyl)-2-oxo-6,7-dihydrobenzo[a]quinolizine-3-carboxylic acid], with 3380 nM.
Turning to `COCCCOc1cc2c(cc1OC)-c1cc(=O)c(C(=O)O)cn1C(C(C)(C)O)C2` (single isomer, unassigned) [Example 22, (−)-6-(1-hydroxy-1-methyl-ethyl)-10-methoxy-9-(3-methoxypropoxy)-2-oxo-6,7-dihydrobenzo[a]quinolizine-3-carboxylic acid], the IC50 under setting [2] was 4020 nM.
On to `COCC(C)(C)C1Cc2cc(OCCCO)c(OC)cc2-c2cc(=O)c(C(=O)O)cn21` (stereo not drawn) [Example 6, 9-(3-Hydroxypropoxy)-10-methoxy-6-(2-methoxy-1,1-dimethyl-ethyl)-2-oxo-6,7-dihydrobenzo[a]quinolizine-3-carboxylic acid], for which the IC50 under setting [1] is 22 nM.
The same measure, in the same setting: then `COCC(C)(C)C1Cc2cc(OCc3ccccc3)c(OC)cc2-c2cc(=O)c(C(=O)O)cn21` (stereo not drawn) [Example 1, 9-Benzyloxy-10-methoxy-6-(2-methoxy-1,1-dimethyl-ethyl)-2-oxo-6,7-dihydrobenzo[a]quinolizine-3-carboxylic acid], with 7 nM; and `CCOc1cc2c(cc1OCC)-c1cc(=O)c(C(=O)O)cn1C(CN(C)C(C)=O)C2` (stereo not drawn) [Example 41, 6-[[Acetyl(methyl)amino]methyl]-9,10-diethoxy-2-oxo-6,7-dihydrobenzo[a]quinolizine-3-carboxylic acid], with 4860 nM; and `COCCCOc1cc2c(cc1OC)-c1cc(=O)c(C(=O)O)cn1C(C(C)(C)COC)C2` (racemic) [Example 27, 10-Methoxy-6-(2-methoxy-1,1-dimethyl-ethyl)-9-(3-methoxypropoxy)-2-oxo-6,7-dihydrobenzo[a]quinolizine-3-carboxylic acid], with 5 nM.
